How the values were obtained:
Type in all cases: cell-based, human
neural crest cells (NCC) = test: Transwell migration assay (FBS chemoattractant, 6 h); conditions: glucose or galactose medium
Method: Cells were seeded at a density of 50,000 cells/well (150,000 cells/cm^2) into the upper chamber (insert) of the 96-well transwell plates (pore size 8 μm, polycarbonate membrane, Corning, Glendale, AZ, USA). The cells were stimulated to migrate through the membrane by medium supplemented with 5% of the chemoattractant fetal bovine serum (FBS) (PAA Laboratories, Pasching, Austria) in the lower chamber (reservoir). For testing of migration inhibition upon compound treatment, compounds were used at a concentration of BMC10 (V) of prior cMINC testing. Three technical replicates per condition were used. As a control for “unstimulated” migration, medium without any chemoattractant was tested. As an endpoint specific control for “inhibited” migration, CytoD with a concentration of 200 nM was used. After 6 h incubation time, the medium was aspirated, and reservoirs were washed with DPBS. Afterwards, reservoirs were filled with EDTA dissociation solution (DPBS supplemented with 0.1% 0.5 M EDTA UltraPure pH 8.0 (Thermo Fisher Scientific, Waltham, MA, USA), and 0.18% NaCl) containing 0.25 μL/mL calcein-AM and incubated for 30 min at 37 °C. The plates were then centrifuged at 300× g for 5 min (1200 rpm, Heraeus Multifuge 1 S-R, ThermoScientific) to remove migrated cells from the membrane. The tray with 96 wells of permeable inserts was removed, and the receiver plate was measured in the spectrophotometer (TECAN, Männedorf, Switzerland) with an emission wavelength of 520 nm. After subtraction of the blank values, the number of migrated cells was normalized to that of cells stimulated with FBS.
To perform the experiments under mitochondria-dependent conditions, the cells were handled exactly in the same way, but the medium was adapted. The N2-S medium was adjusted, so that no glucose was present but galactose. The medium consisted of SILAC^TM Advanced DMEM/-F12 FLEX (Gibco/Fisher Scientific, Hampton, NH, USA), 15 μg/mL insulin, 400 μM GlutaMAX, 0.7 mM L-Arginine, 0.5 mM L-Lysine, 21.5 µM Phenol Red, 20 nM progesterone, 100 μM putrescine and 30 nM selenium, 92.5 μg/mL apotransferrin, 4.7 mg/mL galactose (18 mM). The cytokines 20 ng/mL EGF and 20 ng/mL FGF2 were always freshly added to each run.

complex I (cI) = test: Electron transport chain complex activity in permeabilized NCC (Seahorse); conditions: 60 μM, due to block of cIII
Excerpt: (§1) Magel et al. (2024): Inhibition of neural crest cells migration by strobilurin fungicides
(§2) Figure S9. Inhibition of electron transport chain complexes by picoxystrobin in neural crest […]
(§3) NCC were exposed to the BMC10(V) of the cMINC assay (60 μ M). The grey area indicates th e non-significant range of the assay (≤ 25% change). The effect on complex IV (cIV) was non-significant (green bar). The purple bar indicates complex III (cIII) inhibition. Yellow bars […]
(§4) that for these assays, the electrons have to pass cIII to reach cIV (oxygen consumption), i.e. electrons from cI (or cII) cannot be used for the reduction of oxygen, as they need to flow through cIII (which is blocked). The pattern of inhibition is indicative of cIII as illustrated earlier (Delp et al., 2019; van der Stel et al., 2020).
(§5) To investigate the inhibition pattern of picoxystrobin, NCC were permeabilized and complex-specific substrates and inhibitors were sequentially injected as described earlier (Delp et al., 2019). In detail, cells were permeabilized with MAS buffer (220 mM mannitol, 1 mM ADP, 70 mM sucrose, 10 mM KH2PO4, 5 mM MgCl2, 2 mM HEPES, 1 mM EGTA, 4 mg/ml fatty acid-free BSA, pH = 7.2) supplemented with 25 μ g/mL digitonin. Seahorse measurements were started directly afterwards, and basal OCRs were assessed for internal normalization. Then picoxystrobin was injected and cI activity was assessed. For this, cII was inhibited (5 mM malonat) and substrates for cI (2 mM […], 2.5 mM malic acid, 5 mM pyruvic acid) […]
(§6) were added. […] Next, cI was […]
(§7) inhibited (0.5 μ M rotenone) and substrates of cIII (250 μM duroquinol ) were added. At this step, cIII inhibition data for cIII were obtained. In the case of a cI inhibition (e.g. by rotenone), […]
(§8) To assess cII activity, cI was inhibited and the substrate of cII (10 mM succinic acid) was added.
(§9) Lastly, to assess cIV activity, cII was inhibited and the substrates of cIV (125 μ M TMPD, 2 mM ascorbic acid) were added. Data were compared to the solvent control. Details and assay validation have been provided earlier (Delp et al., 2019; van der Stel et al., 2020). […]

complex II (cII) = test: as above; conditions: 60 μM, due to block of cIII
Excerpt: as §1, §2, §3, §4, §5, §6, §7, §8, §9

complex IV (cIV) = test: as above; conditions: 60 μM (BMC10(V) of cMINC)
Excerpt: as §1, §2, §3, §4, §5, §6, §7, §8, §9

CO/C=C(/C(=O)OC)c1ccccc1COc1cccc(C(F)(F)F)n1 [Picoxystrobin, picoxystrobin]
concentration at which transwell migration was inhibited (neural crest cells (NCC)): ≥ 5 µM
effect on complex I (cI) (complex I (cI)): apparent inhibition
effect on complex II (cII) (complex II (cII)): apparent inhibition
effect on complex IV (cIV) (complex IV (cIV)): non-

— publication PMC11674305, “Inhibition of Neural Crest Cell Migration by Strobilurin Fungicides and Other Mitochondrial Toxicants” (Cells, 2024)
